This is an account of results in publication PMC6510840, “A phase 1b study of transforming growth factor-beta receptor I inhibitor galunisertib in combination with sorafenib in Japanese patients with unresectable hepatocellular carcinoma” (Investigational New Drugs, 2018).

The test system of data set [1] is Japanese patients with unresectable hepatocellular carcinoma. The data set is described as follows: Safety and tolerability (DLTs, TEAEs, SAEs, QTc) in phase 1b study. The conditions noted are these: for 14 days (then 14 days rest), in combination with sorafenib.
Procedure: All eligible patients in this phase 1b, open-label, dose-escalation, multicenter, nonrandomized study received oral administration of galunisertib (160 mg or 300 mg/day) in combination with oral administration of sorafenib 800 mg/day. A cycle was defined as 28 days. Galunisertib was administered at either 80 mg twice daily or 150 mg twice daily for 14 days, followed by 14 days of galunisertib treatment rest, and sorafenib 400 mg twice daily for 28 days. Patients continued treatment until a discontinuation criterion was met.
The DLT evaluation period was 28 days after the first dose. Tolerability was defined as a dose where 2 or fewer of 6 patients experience DLTs. A minimum of 3 patients were planned to be enrolled in the galunisertib 160 mg/day plus sorafenib group, and a minimum of 6 patients were planned to be enrolled in the galunisertib 300 mg/day plus sorafenib group. […]
The sample size was determined based on the study design to evaluate the DLTs, safety, and tolerability of galunisertib in two sequential study treatment groups. […] Patients without a DLT who discontinued the study in cycle 1 due to disease progression, or discontinued sorafenib in cycle 1 for reasons other than disease progression, were assessed for appropriateness of DLT evaluation per Efficacy and Safety Evaluation Committee recommendations. […]
The subject of data set [2] is advanced HCC. Also noted: method as in earlier work. To be noted: galunisertib monotherapy, cited from earlier work.
Data set [3] is described as follows: Noncompartmental plasma pharmacokinetics in phase 1b study. The class given is in vivo, human. The conditions noted are these: for Tmax / half-life / AUC(0-t) / Cmax / AUC(0-inf) / Vd/F: human, plasma; for Cmax: geometric mean (CV%); for Vd/F: read-out: VZ/F. The protocol:
PK analyses were conducted on patients who received at least one dose of galunisertib and had PK samples collected. The PK parameters for galunisertib were calculated by standard noncompartmental methods of analysis using Phoenix™ WinNonlin® 6.4 (Pharsight, A Certara Company; Princeton, NJ, USA). The maximum plasma concentration, time to maximum plasma concentration (tmax), area under the plasma concentration versus time curve from time zero to the last time point with a measurable concentration, and area under the plasma concentration-time curve from time zero to infinity, half-life (t1/2), apparent total body clearance (CL/F), and apparent volume of distribution during the terminal phase (Vz/F) that could be calculated from the data were reported for galunisertib from the noncompartmental PK analyses. Sorafenib PK profiles on day 22 (sorafenib monotherapy) were compared with sorafenib PK profiles on day 14 (administration of galunisertib in combination with sorafenib) within the same patient and in each cohort.

The subject of data set [4] is HCC. Also noted: method as in PMID 18650514. The conditions noted are these: sorafenib arm, global SHARP study; cited from earlier work.
The mark [5] stands for this setting: po, Galunisertib 160 mg/day plus sorafenib, Cycle 1 Day 14, geometric mean (CV%), n = 3.
Setting [6] is: po, Galunisertib 300 mg/day plus sorafenib, Cycle 1 Day 14, geometric mean (CV%), n = 3.

Like-named read-outs stand apart in the source and are kept apart here. Marks after values point to notes of the source that are not given here.

As usually defined, the Tmax is the time at which the peak concentration occurs. Broadly, the Cmax is the highest concentration seen after dosing. As usually defined, the AUC(0-inf) is total exposure, with the tail of the curve extrapolated.

For the molecule `Cc1cccc(-c2nn3c(c2-c2ccnc4ccc(C(N)=O)cc24)CCC3)n1` [Galunisertib, galunisertib], in data set [1], the “recommended dose of galunisertib with confirmed tolerability” value is listed as 150 mg twice daily. The “median OS” value was 16.8 months in data set [2] (AFP <1.5 ULN (part B), 90% CI 10.4–24.1) and 7.2 months in data set [2] (baseline AFP ≥1.5 ULN (part A), 90% CI 5.3–9.3). In addition, the “median time-to-progression (TTP)” value is 2.7 months in data set [2] (part A, 90% CI 1.4−2.9) and 4.1 months in data set [2] (part B, 90% CI 2.3–5.5). In addition, the CL/F in data set [3] (Galunisertib 160 mg/day plus sorafenib, Cycle 1 Day 14, geometric mean (CV%), n = 3) is listed as 10.1 (4)^d L/h; in data set [3] (Galunisertib 160 mg/day plus sorafenib, Cycle 1 Day 14, geometric mean (CV%), n = 3, listed as galunisertib), 10.1 L/h; in data set [3] (Galunisertib 300 mg/day plus sorafenib, Cycle 1 Day 14, geometric mean (CV%), n = 3) it was 13.5 (9)^d L/h; in data set [3] (Galunisertib 300 mg/day plus sorafenib, Cycle 1 Day 14, geometric mean (CV%), n = 3, listed as galunisertib), 13.5 L/h. In addition, the Tmax in data set [3] (oral, both galunisertib doses (160 and 300 mg/day) plus sorafenib, post-dose, read-out: median tmax) was 1 to 2 h; in data set [3] (po, 160 mg/day, Galunisertib 160 mg/day plus sorafenib, Cycle 1 Day 1, median (range), N 7, read-out: tmax) it was 1.93 h; in data set [3] (po, 160 mg/day, Galunisertib 160 mg/day plus sorafenib, Cycle 1 Day 14, median (range), N 7, read-out: tmax) it was 1.85 h; in data set [3] (po, 300 mg/day, Galunisertib 300 mg/day plus sorafenib, Cycle 1 Day 1, median (range), N 7, read-out: tmax) it was 0.93 h; in data set [3] (po, 300 mg/day, Galunisertib 300 mg/day plus sorafenib, Cycle 1 Day 14, median (range), N 4, read-out: tmax), 2.04 h. For the same molecule, the half-life was ~4 h in data set [3] (oral, both galunisertib doses (160 and 300 mg/day) plus sorafenib, read-out: mean t1/2 (converted)); 4.24 h in data set [3] (po, Galunisertib 160 mg/day plus sorafenib, Cycle 1 Day 14, geometric mean (range), n = 3, read-out: t1/2 (converted)); 4.01 h in data set [3] (po, Galunisertib 300 mg/day plus sorafenib, Cycle 1 Day 14, geometric mean (range), n = 3, read-out: t1/2 (converted)). For the same molecule, the AUC(0-t) in data set [3] (po, 160 mg/day, Galunisertib 160 mg/day plus sorafenib, Cycle 1 Day 1, geometric mean (CV%), N 7, read-out: AUC(0-6)) was 2800 ng·h/mL; in data set [3] (po, 160 mg/day, Galunisertib 160 mg/day plus sorafenib, Cycle 1 Day 14, geometric mean (CV%), N 7, read-out: AUC(0-6)) it was 3670 ng·h/mL; in data set [3] (po, 160 mg/day, Galunisertib 160 mg/day plus sorafenib, Cycle 1 Day 14, geometric mean (CV%), n = 6, read-out: AUC(0–24)), 7170 ng·h/mL; in data set [3] (po, 300 mg/day, Galunisertib 300 mg/day plus sorafenib, Cycle 1 Day 1, geometric mean (CV%), N 7, read-out: AUC(0-6)) it was 5040 ng·h/mL; in data set [3] (po, 300 mg/day, Galunisertib 300 mg/day plus sorafenib, Cycle 1 Day 14, geometric mean (CV%), N 4, read-out: AUC(0-6)), 5570 ng·h/mL; in data set [3] (po, 300 mg/day, Galunisertib 300 mg/day plus sorafenib, Cycle 1 Day 14, geometric mean (CV%), N 4, read-out: AUC(0–24)), 10600 ng·h/mL. Also, the Cmax in data set [3] (po, 160 mg/day, Galunisertib 160 mg/day plus sorafenib, Cycle 1 Day 1, plasma, N 7) stood at 899 ng/mL; in data set [3] (po, 160 mg/day, Galunisertib 160 mg/day plus sorafenib, Cycle 1 Day 14, plasma, N 7), 1150 ng/mL; in data set [3] (po, 300 mg/day, Galunisertib 300 mg/day plus sorafenib, Cycle 1 Day 1, plasma, N 7), 1900 ng/mL; in data set [3] (po, 300 mg/day, Galunisertib 300 mg/day plus sorafenib, Cycle 1 Day 14, plasma, N 4) it was 2000 ng/mL. Also, the total exposure AUC(0-inf) in data set [3] (setting [5]) came to 7870 ng·h/mL; in data set [3] (setting [6]) it was 11100 ng·h/mL. The Vd/F in data set [3] (setting [5]) came out at 62 L; in data set [3] (setting [6]), 78.1 L.

In the case of `CNC(=O)c1cc(Oc2ccc(NC(=O)Nc3ccc(Cl)c(C(F)(F)F)c3)cc2)ccn1` [sorafenib], in data set [4], the “median OS” value was 10.7 months. Further, the “PK profile of sorafenib in combination with galunisertib” value in data set [3] (day 14 (with galunisertib) versus day 22 (sorafenib monotherapy), data not shown) is “comparable to that of sorafenib administered alone”.
